Measurements published in paper PMC8151276, “An Integrated Approach toward NanoBRET Tracers for Analysis of GPCR Ligand Engagement” (Molecules, 2021).

Legend:
FZD10 = molecular target: T1, FZD10 (Homo sapiens, UniProt Q9ULW2); test: NanoBRET screen HiBiT-FZD10 in HEK293; type: binding; details: FZD10
T1 construct: purchased Promega (in-house HiBiT-GPCR construct library, NanoBRET)
T1 sequence (Q9ULW2 21-581): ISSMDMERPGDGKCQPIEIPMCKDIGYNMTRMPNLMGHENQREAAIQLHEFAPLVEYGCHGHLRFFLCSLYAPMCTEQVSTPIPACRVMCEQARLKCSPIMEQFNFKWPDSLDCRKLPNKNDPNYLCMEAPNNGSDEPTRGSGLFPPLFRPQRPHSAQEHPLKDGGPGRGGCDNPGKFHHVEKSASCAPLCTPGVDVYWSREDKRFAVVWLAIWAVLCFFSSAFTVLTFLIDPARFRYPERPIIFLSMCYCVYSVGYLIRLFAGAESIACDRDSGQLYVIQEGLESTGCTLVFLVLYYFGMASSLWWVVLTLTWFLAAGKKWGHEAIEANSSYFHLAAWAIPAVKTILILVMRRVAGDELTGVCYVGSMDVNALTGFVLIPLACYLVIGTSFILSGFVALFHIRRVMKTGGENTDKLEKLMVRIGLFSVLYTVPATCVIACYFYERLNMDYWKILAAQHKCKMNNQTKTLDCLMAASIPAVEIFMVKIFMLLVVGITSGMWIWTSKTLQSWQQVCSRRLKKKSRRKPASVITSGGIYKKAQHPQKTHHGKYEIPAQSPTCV
Protocol: (§1) Each tracer candidate was screened across the entire library of HiBiT-GPCR constructs using NanoBRET as the detection modality. As depicted in Figure 4A, the specificity of interactions was evaluated through decrease in BRET due to competitive displacement of a bound tracer by excess parental compound. Each tracer was analyzed for binding to each HiBiT-GPCR fusion in the absence and in the presence of competing parental compound. Briefly, HEK293 cells were transfected with HiBiT-GPCR constructs diluted into promoterless DNA to reduce expression and maximize translocation to the cell surface. Each tracer candidate was then screened at concentrations of 1 μM and 0.1 μM across cells expressing these fusions. Cells were treated for 1.5 h with tracer either alone or in the presence of 20 μM competing parental compound (i.e., control). BRET was measured upon addition of purified LgBiT and subsequent complementation with HiBiT genetically fused to a GPCR. The specificity of interactions was assessed through a decrease in BRET signal due to competitive displacement of the bound tracer. To further gauge the robustness of these interactions, the fold response over the control (i.e., BRETtracer/BRETcontrol) was calculated. We chose a 1.5-fold response, which translates to ≥7-fold signal over noise as the minimal threshold required to score an interaction as positive.
(§2) HiBiT-GPCR DNA constructs were diluted in 10 mM Tris pH 8 to a final concentration of 0.01 μg/μL, arrayed in 96-well plates and stored at −20 °C. For transfection, HEK293 cells were suspended in Opti-MEM (without phenol red) supplemented with 2% fetal bovine serum (Seradigm) and 100 units/mL penicillin–streptomycin (Gibco) at a final concentration of 220,000 cells/mL and dispensed into white 96-well plates at 90 μL/well. Subsequent transfections and screens were carried using an Agilent Bravo Automated Liquid Handling Platform. First, the 96-well HiBiT DNA arrays were diluted 25-fold in Opti-MEM (without serum or phenol red) to a final concentration of 0.0004 μg/μL and 20 μL of the diluted DNAs were transferred into new 96-well plates. Next, promoterless carrier DNA (1 μg/μL) was diluted 25-fold (0.04 μg/μL) and then dispensed into the diluted arrays at 20 μL/well. Following brief mixing, Viafect transfection reagent (Promega) diluted 16-fold into Opti-MEM was dispensed into the plates at 40 μL/well. After mixing by pipetting, plates were incubated for 10 min on the pipetting station deck. The DNA-transfection reagent complexes were then added to plates containing cells. To facilitate the screen, 10 μL of DNA-transfection reagent complexes were added in duplicates to the top 4 and bottom 4 rows, resulting in two identical 48-well arrays per plate. Plates with transfected cells were incubated for 18–20 h at 37 °C/5% CO2. A screen of each tracer across the entire library using two different concentrations requires duplicate plates of transfected cells. Depending on the number of tracers being screened, transfections can be scaled up using the same ratios. The next day, for each tracer, four 20× screening solutions in tracer dilution buffer (Promega) were prepared: two duplicates at final concentration of 20 μM and two duplicates at a final concentration of 2 μM. […] The four resulting solutions were diluted 4-fold in Opti-MEM without serum or phenol red to generate 5× solutions (5 µM and 0.5 µM tracer +/− 100 μM competing compound). To screen the library, a BioTek MultiFlo FX liquid dispenser was used to dispense 22.5 µL of tracer solution to the top 4 rows and 22.5 µL tracer + competing compound solution to the 4 bottom rows. Plates were briefly mixed on an orbital shaker and incubated for 1.5 h at room temperature. […] Plates were briefly mixed on an orbital shaker and incubated for 15 min to allow complementation.

ADCYAP1R1 = molecular target: T2, ADCYAP1R1 (Homo sapiens, UniProt P41586); test: NanoBRET screen HiBiT-ADCYAP1R1 in HEK293; type: binding; details: ADCYAP1R1
T2 construct: purchased Promega (in-house HiBiT-GPCR construct library, NanoBRET)
T2 sequence (P41586 21-468): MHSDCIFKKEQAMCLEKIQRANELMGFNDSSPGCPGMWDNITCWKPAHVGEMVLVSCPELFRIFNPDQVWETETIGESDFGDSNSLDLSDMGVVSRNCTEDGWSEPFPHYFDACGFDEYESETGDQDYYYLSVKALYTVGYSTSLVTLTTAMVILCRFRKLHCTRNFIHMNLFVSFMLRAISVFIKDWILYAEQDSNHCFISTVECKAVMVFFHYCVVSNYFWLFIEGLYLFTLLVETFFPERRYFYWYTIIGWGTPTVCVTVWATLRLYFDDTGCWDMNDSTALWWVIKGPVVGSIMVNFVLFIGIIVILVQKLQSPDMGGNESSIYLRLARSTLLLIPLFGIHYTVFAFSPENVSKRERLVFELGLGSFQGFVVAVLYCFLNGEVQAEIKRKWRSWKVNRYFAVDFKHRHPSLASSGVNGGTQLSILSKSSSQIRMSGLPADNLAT
Protocol: as §1, §2

SMILES	NanoBRET Fold Response (FZD10; tracer 0.1μM)	NanoBRET Fold Response (FZD10; tracer 1μM)	NanoBRET Fold Response (ADCYAP1R1; tracer 0.1μM)	NanoBRET Fold Response (ADCYAP1R1; tracer 1μM)	NanoBRET Fold Response (FZD10; 0.1μM)	NanoBRET Fold Response (FZD10; 1μM)	NanoBRET Fold Response (ADCYAP1R1; 0.1μM)	NanoBRET Fold Response (ADCYAP1R1; 1μM)
COc1ccccc1N1CCN(CCCCN2C(=O)c3ccc(CNC(=O)CCOCCNC(=O)c4ccc(CNC(=O)CCc5ccc6n5[B-](F)(F)[N+]5=C(c7ccc[nH]7)C=CC5=C6)cc4)cc3C2=O)CC1 [NAN-190-3-NB590]	0.92	0.79	1.25	1.00				
O=C(CCc1ccc2n1[B-](F)(F)[N+]1=C(c3ccc[nH]3)C=CC1=C2)NCc1ccc(C(=O)NCCOCCC(=O)N[C@@H]2CC[C@@]3(O)[C@H]4Cc5ccc(O)c6c5[C@@]3(CCN4CC3CC3)[C@H]2O6)cc1 [Naltrexone-3-NB590]	0.66	1.06	0.88	0.98				
Cc1cc2c(s1)Nc1ccccc1N=C2N1CCN(CCCNC(=O)CCOCCOCCOCCOCCNC(=O)CCc2ccc3n2[B-](F)(F)[N+]2=C(c4ccc[nH]4)C=CC2=C3)CC1 [Olanzapine-a-2-NB590]	0.98	0.99	1.02	1.01				
O=C(CCc1ccc2n1[B-](F)(F)[N+]1=C(c3ccc[nH]3)C=CC1=C2)NCc1ccc(C(=O)NCCOCCOCCNCC(O)COc2cccc3ccccc23)cc1 (centres unmarked) [Propranolol-3-NB590]					1.04	1.02	1.00	0.97
O=C(CCc1ccc2n1[B-](F)(F)[N+]1=C(c3ccc[nH]3)C=CC1=C2)NCCOCCOCCNC(=O)OCCOCCN1CCN(C2=Nc3ccccc3Sc3ccccc32)CC1 [Quetiapine-a-2-NB590]	0.92	0.80	1.03	1.11				
Cc1nc2n(c(=O)c1CCN1CCC(c3noc4cc(F)ccc34)CC1)CCCC2OC(=O)NCCOCCOCCOCCOCCNC(=O)CCc1ccc2n1[B-](F)(F)[N+]1=C(c3ccc[nH]3)C=CC1=C2 (centres unmarked) [Risperidone-2-NB590]	1.00	1.04	0.99	1.02				
CC(C)N(CC[C@H](c1ccccc1)c1cc(CCNC(=O)CCOCCOCCOCCOCCNC(=O)CCc2ccc3n2[B-](F)(F)[N+]2=C(c4ccc[nH]4)C=CC2=C3)ccc1O)C(C)C [Tolterodine-2-NB590]		1.05	0.68	0.93				
CC(C)N(CC[C@H](c1ccccc1)c1cc(CCNC(=O)c2ccc(CNC(=O)CCc3ccc4n3[B-](F)(F)[N+]3=C(c5ccc[nH]5)C=CC3=C4)cc2)ccc1O)C(C)C [Tolterodine-BZ-NB590]	0.97	1.06	1.04	1.00				
CCCn1c(=O)c2[nH]c(-c3ccc(OCC(=O)NCCNC(=O)CCOCCNC(=O)c4ccc(CNC(=O)CCc5ccc6n5[B-](F)(F)[N+]5=C(c7ccc[nH]7)C=CC5=C6)cc4)cc3)nc2n(CCC)c1=O [XAC-3-NB590]	1.05	0.99	0.98	0.97				
